From patent US6815187B1, “Stimulation of angiogenesis via syndecan-4 cytoplasmic domain signaling pathway” (Beth Israel Deaconess Medical Center, priority 1998, dated 2004)
Where no end group is shown, it is not given here. [ ]: non-standard residue; d: D form. pS = N[C@@H](COP(=O)(O)O)C(=O)O

Columns and labels:
[1] = test system: syndecan-4 cytoplasmic tail phosphorylation in NIH 3T3 cells; assay: Syndecan-4 cytoplasmic tail phosphorylation stoichiometry (32P/35S double labeling) in NIH 3T3 cells; format: cell-based
Procedure: Confluent NIH 3T3 cells were washed twice in phosphate-free DMEM and incubated for 24 h at 37° C. in a 5% CO2 humidified atmosphere in phosphate-free DMEM supplemented with 0.5% fetal bovine serum. The cells were washed twice with methionine, phosphate, and serum-free DMEM and incubated for 6 h in the same medium, supplemented with 400 μCi/ml [^35S]methionine (New England Nuclear, Boston, Mass.). At the onset of the last 2 h of incubation, 500 μCi/ml [^32P]orthophosphoric acid (New England Nuclear) was added to the medium.
Cells were washed with PBS ([…], 10 mM Na2HPO4, 3.6 mM KCl, 1.8 mM KH2PO4, pH 7.4), dissociated by 0.05% trypsin, 0.5 mM EDTA (Life Technologies, Inc.) in PBS for 10 min at 22° C., and sedimented by 2000×g centrifugation at 4° C. for 5 min. The syndecan-4 ectoplasmic domain was immunoprecipitated from 0.5 ml of medium collected before cell trypsinization or from 0.5 ml of supernatant of the latter centrifugation. The cytoplasmic tail was immunoprecipitated from the pellet after a 30-min extraction at 4° C. in 0.5 mil of lysis buffer supplemented with 100 μM leupeptin, 2 μM pepstatin, and 10 nM okadaic acid (Sigma). Total protein concentrations in each fraction were measured by spectrophotometry at 595 nm (DU 640, Beckman, Fullerton, Calif.) of an aliquot developed for 10 min in Protein Assay Dye Reagent (Bio-Rad). Bovine serum albumin (Life Technologies Inc.) was used as standard.
The medium, trypsinization supernatant, and extracted pellet fractions were precleared by adding 30 μl of 1:1 (v/v) slurry of protein G plus/protein A-agarose beads (Calbiochem), and 10 μl of nonimmune rabbit serum (Life Technologies Inc.). After a 2-h incubation at 4° C. in rotating tubes, the beads were sedimented by 5 min, 5000×g centrifugation at 4° C. The cleared samples were supplemented with 40 μl of 1:1 (v/v) slurry of the above beads and 10 μl of rabbit polyclonal antiserum (syndecan-4 ectoplasmic domain-specific antiserum was added to the medium and trypsinization supernatant samples, and cytoplasmic tail-specific antiserum was added to the extracted pellet fraction) and incubated in rotating tubes for 18 h at 4° C. The agarose beads were collected by centrifugation as above, washed three times in heparinase digestion buffer, and resuspended in 40 μl of digestion buffer, and the GAG chains of the bead-attached ectoplasmic domains from the medium and from the trypsinization-supernatant were cleaved as above. The ectoplasmic and cytoplasmic tails were dissociated from the beads by a 10-min incubation in SDS buffer at 95° C., and the beads were sedimented by a 5 min, 13,000×g centrifugation at 4° C.
Immunoprecipitated, full-length syndecan-4 core proteins were resuspended in Laemmli sample buffer (2% SDS, 10% glycerol), 0.5% P-mercaptoethanol, 0.004% bromphenol blue, 50 mM Tris-HCl, pH 6.8) resolved by SDS-PAGE on a 10% slab gel, and transferred to a polyvinylidene fluoride (PVDF) membrane (Immobilon-P, Millipore, Bedford, Mass.) for 12 h at 25 mA in 150 mM glycine, 20 mM Tris-HCl, and 20% methanol. The ectoplasmic and cytoplasmic syndecan-4 domains were resolved on a 15% slab gel and transferred for 90 min at 20 mA in 150 mM glycine, 20 mM Tris-HCl, and 30% methanol to a low porosity PVDF membrane (Immobilon-P^SQ, Millipore). Radiolabeled bands detected by exposure to film (XAR, Kodak, Rochester, N.Y.) were excised, and their radioactivity was measured in both the ^32P and ^35S spectra by scintillation counting (LS 6000IC, Beckman, Fullerton, Calif.). In some cases, the same membranes were used for immunoblotting prior to band excision.
To determine the stoichiometry of the basal phosphorylation of syndecan-4, as well as the effect of bFGF and of other compounds on this phosphorylation, the cells were doubly labeled with [^35S]methionine and [^32P]orthophosphoric acid. […]

[2] = test system: syndecan-4 expression in NIH 3T3 cells; assay: Syndecan-4 expression level by immunoblotting and densitometry of cell lysates; format: cell-based
Procedure: After blocking in PBS containing 5% nonfat milk powder for 1 h at 22° C., the membrane was incubated in the same solution supplemented with 1:3000 (v/v) dilution of either ectoplasmic or cytoplasmic tail-specific antiserum for 2 h, washed with PBS, and incubated for 1 h in 5% milk powder-PBS containing 1:2000 diluted goat anti-rabbit IgG conjugated to peroxidase (Vector Laboratories, Burlingame, Calif.). The secondary antibody was detected, after […] PBS wash, by chemiluminescence (Western Blot, Chemiluminescence Reagent Plus, New England Nuclear). Molecular weights were estimated by comparison with the electrophoretic mobility of standards (Kaleidoscope Prestained Standards, Bio-Rad). Densitometry of digitized images of immunoprobed membranes (ScanJet 4c, Hewlett Packard) was performed using ImageQuant software (Molecular Dynamics, Sunnyvale, Calif.).
If, contrary to our assumption, the incorporation efficiency of ^35S is higher than that of ^32P, the bFGF-induced decrease in syndecan-4 phosphorylation could solely result from bFGF up-regulation of syndecan-4 synthesis. […] The syndecan-4 bands, which similar to immunoprecipitated samples (FIG. 2A) ran at an approximate molecular mass of […], were detected with the antiserum specific to the ectoplasmic domain; and the amount of protein in each band was quantified by densiometry. […]

PKC = details: commercially available PKC inhibitors; cited from earlier work
recombinant PKCα = molecular target: T1, recombinant PKCα (Homo sapiens, UniProt P17252); assay: PKC in vitro assay, phosphorylation of PKCβ1 optimal substrate peptide by recombinant PKCα; format: biochemical; details: 50 μM peptide with cofactors PS, DAG and calcium
T1 construct: made in house
Procedure: Samples (30 μl) consisted of PKCβ1 optimal substrate peptide (100 μM) either with or without syndecan-4 cytoplasmic tail peptides S4c or S4c-P (both at 50 μM) in 25 mM Tris-HCl (pH 7.4), […], 1 mM DTT, 50 μM ATP, and 5 μCi [y-^32P]ATP (New England Nuclear, Boston, Mass.). In some assays the buffer was supplemented with either PIP2 (50 μM), or PS (4 μg/ml), diolein (6.2 μg/ml), and 0.2 mM CaCl2. In PKCδ assays the buffer was supplemented with PS and diolein as above, and with 0.5 mM EGTA. Upon addition of either PKCα (120 ng/ml) or PKCδ (430 ng/ml), samples were incubated at 30° C. for 10 min, and reactions were stopped by boiling in Laemmli sample buffer for 4 min. The samples were resolved on 16.5% Tris-tricine gels (BioRad Laboratories), transferred to PVDF membranes and detected as described previously in Experimental Series I.
To assess the effect of Ser^183 phosphorylation on syndecan-4-dependent PKC activation, the ability of the 28 amino acid-long syndecan-4 cytoplasmic tail peptide, S4c, and S4c-P peptides to activate recombinant PKCα was studied using the PKCβ1 optimal substrate peptide in an in-vitro assay. The results are graphically illustrated by FIG. 5.
Densitometry histograms of autoradiographic images of PKC β1 optimal substrate peptide were resolved on 16.5% Tris-tricine gels and then transferred to PVDF membranes (n=3; bars denote SD). […]

[3] = PIP2 binding assay (filtration of PIP2 micelle-bound peptide)
Procedure: PIP2 (from Sigma, dissolved at 2 mg/ml in 20 parts CHCl3, 9 parts MeOH, 1 part H2O, 0.1 part 1N HCl) was dried under N2 and sonicated for 5 min in ice-cold H2O at a final concentration of 1 mg/ml. Syndecan-4 cytoplasmic tail peptides S4c or S4c-P (100 μM) were incubated on ice for 30 min with the indicated concentrations of PIP2 in 10 mM Tris-HCl (pH 7.5), 75 mM KCl, 0.5 mM DTT, in aliquots of 100 μl. The samples were layered on 30 kDA-molecular-mass cutoff cellulose filters (Ultrafree-MC, Millipore, Bedford, Mass.), and spun at 2000 g for 1 min, following the method described in Haarer et al., Mol. Cell Biol. 13: 7864-7873 (1993). The samples (40 μl of each in Laemmli sample buffer, 2% SDS, 10% glycerol, 0.5% β-mercaptoethanol, 0.004% bromophenol blue, 50 mM Tris-HCl, pH 6.8) were resolved by SDS-PAGE on 16.5% Tris-tricine gels (BioRad Laboratories, Hercules, Calif.). Gels were stained with Coomassie Brilliant Blue G-250 (BioRad Laboratories), and images of the stained bands were digitized (DeskScan II on ScanJet 4c, Hewlett Packard) and quantitated by densitometry (ImageQuant, Molecular Dynamics, Sunnyvale, Calif.).
Both the oligomerization and PKCα activation capacities of the cytoplasmic tail of syndecan-4 have been reported as depending on the presence of PIP2 [Oh et al., J. Biol. Chem. 272: 11805-11811 (1997); Lee et al., J. Biol. Chem. 273: 13022-13029 (1998)]. It was of interest, therefore, to determine whether the phosphorylation of Ser^183 in the cytoplasmic tail of syndecan-4 affects the affinity of the tail to PIP2. To this end, the in-vitro binding between PIP2 micelles and S4c or S4c-P peptides was compared using a filtration assay. The filter retains the PIP2 micelle-bound peptide, while the unbound peptide passes through it. The results are illustrated by FIGS. 7A and 7B respectively.
Samples were resolved on 16.5% Tris-tricine gels. FIG. 7B graphically illustrates the densitometry results of the gel bands of the S4c (black bars) and S4c-P (white bars) peptides shown in FIG. 7A.

basic fibrocyte growth factor [bFGF]
phosphorylation stoichiometry of syndecan-4 ([1]; 10 ng/ml bFGF during last 5 h of serum-free starvation, n=5, basal 0.31±0.12): 0.16±0.02 mol Pi/mol syndecan-4 | phosphorylation stoichiometry of syndecan-4 ([1]; 20 and 30 ng/ml bFGF, n=3): 0.12±0.06 mol Pi/mol syndecan-4 | level of syndecan-4 expression, % of control cells ([2]; 10 ng/ml bFGF): 85% | level of syndecan-4 expression, % of control cells ([2]; 30 ng/ml bFGF): 93%

Calphostin
IC50 (PKC): 50 nM

calyculin
syndecan-4 phosphorylation in bFGF-treated cells ([1]; 5 nM calyculin applied with 10 ng/ml bFGF): basal level | increase of syndecan-4 phosphorylation relative to basal level ([1]; 5 nM calyculin in the absence of bFGF): more than 2.5 fold

Cn1c2ccccc2c2c3c(c4c5ccccc5n(CCC#N)c4c21)CNC3=O [Gö 6976]
phosphorylation of syndecan-4 ([1]; Gö 6976 up to 100 nM in PMA (0.5 μM)-treated cells): not reduced | IC50 (PKC): 8 nM

CCCCCCCCCCCCCC(=O)O[C@@H]1[C@@H](C)[C@@]2(O)[C@@H](C=C(CO)C[C@]3(O)C(=O)C(C)=C[C@@H]23)[C@@H]2C(C)(C)[C@]12OC(C)=O [PMA, Phorbol-12-myristate-13-acetate]
syndecan-4 phosphorylation relative to basal level ([1]; 0.5 μM PMA): ~3 fold | stoichiometry of the phosphorylation of syndecan-4 ([1]; 0.5 μM PMA during last 5 h of serum-free starvation, n=3): 0.81±0.33 mol Pi/mol syndecan-4

S4c-P: similar syndecan-4 cytoplasmic tail peptide with a phosphorylated Ser (RMKKKDEG[pS]YDLGKKPIYKKAPTNEFYA)
effect on catalytic activity of PKCα (recombinant PKCα): neither the S4c, nor the S4c-P peptides had any additional effect | Kd ([3]; calculated from densitometry of filter flow-through, FIG. 7, read-out: dissociation constant (Kd) for PIP2): 232000 nM | peptide passed through the filter ([3]; peptide:PIP2 molar ratio of 1:2): 50% | peptide retained by the filter ([3]; peptide:PIP2 molar ratio of 2:1, 100 μM peptide): none

COc1ccc2c(c[n+](C)c3c4cc5c(cc4ccc23)OCO5)c1OC [chelerythrine]
phosphorylation of syndecan-4 ([1]; 6 μM chelerythrine together with 0.5 μM PMA): undetectable level | concentration above which syndecan-4 phosphorylation started to decline ([1]; applied together with 0.5 μM PMA): above 1.5 μM
